SMILES strings stand for the structures. Values joined by “and” are separate entries in the source; they are usually repeats but may differ in a detail not shown here. Identical values can stand only once. Results filed as inconclusive are left out.

The test relates to MX-1 breast xenograft, intrarenal, nude mice, tumor weight. In words: NCI In Vivo Anticancer Drug Screen. Data for tumor model Human Mammary Carcinoma MX-1 Xenograft (intrarenal inoculation) in NU/NU BALB/C (nude) mice. Particulars: endpoint: mean tumor weight change, higher = larger tumour. Summed up:
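Mice w/ transplanted tumors, drug vs vehicle; endpoint survival or tumor size; value = T/C.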
Background: In xenograft studies the graft and the host belong to different species.

[1] abbreviates: dose: 200.0 mg/kg/injection, schedule: Q04DX003 (ip), vehicle: saline with Tween-80.
The mark [2] stands for this setting: dose: 150.0 mg/kg/injection, schedule: Q04DX003 (ip), vehicle: saline.
The mark [3] stands for this setting: dose: 100.0 mg/kg/injection, schedule: Q04DX003 (ip), vehicle: saline with Tween-80.
Setting [4] is: dose: 400.0 mg/kg/injection, schedule: Q04DX003 (ip), vehicle: saline with Tween-80.
The mark [5] stands for this setting: dose: 200.0 mg/kg/injection, schedule: Q04DX003 (sc), vehicle: saline with Tween-80.

In the case of `CCOC1NC(=O)Oc2ccccc21` (stereo not drawn), the T/C is 80 % of control (dose: 150.0 mg/kg/injection, schedule: Q04DX003 (ip), vehicle: Klucel (hydroxypropylcellulose) (HPC)); 74 % of control (dose: 300.0 mg/kg/injection, schedule: Q04DX003 (ip), vehicle: Klucel (hydroxypropylcellulose) (HPC)); 86 % of control (dose: 600.0 mg/kg/injection, schedule: Q04DX003 (ip), vehicle: Klucel (hydroxypropylcellulose) (HPC)); 79 % of control (dose: 1200.0 mg/kg/injection, schedule: Q04DX003 (ip), vehicle: Klucel (hydroxypropylcellulose) (HPC)).

Take `O=P(O)(NCCCl)NCCCl`: where the note is “dose: 37.5 mg/kg/injection, schedule: Q04DX003 (sc), vehicle: saline”, the T/C was 31 % of control.

Turning to `COc1ccc2oc3c(ccc[n+]3C)c(=O)c2c1`, under setting [1], the T/C is 116 % of control.

Regarding `Nc1ccn([C@@H](C=O)C[C@@H](C=O)CO)c(=O)n1`, the T/C was 76 % of control (dose: 75.0 mg/kg/injection, schedule: Q04DX003 (ip), vehicle: saline) and 124 % of control under setting [2].

Take `CC(=O)O[C@H]1C(=O)[C@@]2(C)[C@H]([C@H](OC(=O)c3ccccc3)[C@]3(O)C[C@H](OC(=O)[C@H](O)[C@@H](NC(=O)c4ccccc4)c4ccccc4)C(C)=C1C3(C)C)[C@]1(OC(C)=O)CO[C@@H]1C[C@@H]2O`: the T/C is 5 % of control and 16 % of control (dose: 1.88 mg/kg/injection, schedule: Q01DX009 (ip), vehicle: Klucel (hydroxypropylcellulose) (HPC)); 12 % of control (dose: 2.5 mg/kg/injection, schedule: Q01DX009 (ip), vehicle: Klucel (hydroxypropylcellulose) (HPC)); -80 % of control and -100 % of control (dose: 3.75 mg/kg/injection, schedule: Q01DX009 (ip), vehicle: Klucel (hydroxypropylcellulose) (HPC)); -100 % of control (dose: 4.45 mg/kg/injection, schedule: Q01DX009 (ip), vehicle: Klucel (hydroxypropylcellulose) (HPC)); -61 % of control (dose: 5.0 mg/kg/injection, schedule: Q01DX009 (ip), vehicle: Klucel (hydroxypropylcellulose) (HPC)); -100 % of control (dose: 6.67 mg/kg/injection, schedule: Q01DX009 (ip), vehicle: Klucel (hydroxypropylcellulose) (HPC)). Moreover, the T/C by setting is: (dose: 7.5 mg/kg/injection, schedule: Q01DX009 (ip), vehicle: Klucel (hydroxypropylcellulose) (HPC)) -100 % of control; (dose: 10.0 mg/kg/injection, schedule: Q01DX009 (ip), vehicle: Klucel (hydroxypropylcellulose) (HPC)) -84 % of control and -100 % of control; (dose: 15.0 mg/kg/injection, schedule: Q01DX009 (ip), vehicle: Klucel (hydroxypropylcellulose) (HPC)) -100 % of control.

As to `CN(C)CCNc1ccc(CO)c2sc3ccc(O)cc3c(=O)c12`, the T/C by setting is: (dose: 50.0 mg/kg/injection, schedule: Q04DX003 (ip), vehicle: saline with Tween-80) 30 % of control; under setting [3], 25 % of control and 26 % of control and 28 % of control; under setting [1], 6 % of control and 17 % of control and 28 % of control; under setting [4], 5 % of control and 10 % of control and 18 % of control.

In the case of `Cc1ccc(S(=O)(=O)NC(=O)OC23COCN2COC3)cc1`, the T/C was 123 % of control under setting [5]; 102 % of control (dose: 800.0 mg/kg/injection, schedule: Q04DX003 (sc), vehicle: saline with Tween-80); 107 % of control (dose: 1600.0 mg/kg/injection, schedule: Q04DX003 (sc), vehicle: saline with Tween-80).

In the case of `COc1cccc2c1C(=O)c1c(O)c3c(c(O)c1C2=O)C[C@](O)(C(=O)CO)CC3OC1CC(N)C(OC2CCCCO2)C(C)O1` (stereo partly drawn), the T/C (dose: 7.5 mg/kg/injection, schedule: Q04DX003 (ip), vehicle: water) is 21 % of control.

With `CCc1ccc(C2=C(O)C(=O)C(c3ccc(CC)cc3)=C(O)C2=O)cc1`, the T/C under setting [5] was 67 % of control.

Consider `[N-]=[N+]=[N-]`, for which the T/C runs as follows: (dose: 1.5 mg/kg/injection, schedule: Q04DX003 (ip), vehicle: water) 66 % of control; (dose: 6.0 mg/kg/injection, schedule: Q04DX003 (ip), vehicle: water) 66 % of control; (dose: 12.0 mg/kg/injection, schedule: Q04DX003 (ip), vehicle: water) 64 % of control.

Regarding `CNC(=O)OCc1nc(SC)n(C)c1COC(=O)NC`, the T/C was -91 % of control (dose: 28.75 mg/kg/injection, schedule: Q04DX003 (ip), vehicle: saline); -85 % of control (dose: 57.5 mg/kg/injection, schedule: Q04DX003 (ip), vehicle: saline); -63 % of control (dose: 115.0 mg/kg/injection, schedule: Q04DX003 (ip), vehicle: saline).

In the case of `CC(=O)O[C@H]1C(=O)[C@@]2(C)C(C(OC(=O)c3ccccc3)[C@]3(O)C[C@H](OC(=O)C(O)C(NC(=O)c4ccccc4)c4ccccc4)C(C)=C1C3(C)C)C1(OC(C)=O)COC1C[C@@H]2OC(=O)CN(C)C` (stereo partly drawn) (tested in a mixture with another compound), the T/C (dose: 4.13 mg/kg/injection, schedule: Q01DX009 (ip), vehicle: water) was 34 % of control; the T/C (dose: 8.25 mg/kg/injection, schedule: Q01DX009 (ip), vehicle: water) is 23 % of control; the T/C (dose: 16.5 mg/kg/injection, schedule: Q01DX009 (ip), vehicle: water) is -93 % of control; the T/C (dose: 33.0 mg/kg/injection, schedule: Q01DX009 (ip), vehicle: water) is -100 % of control.

In the case of `C[C@]12CC[C@@H]3c4ccc(OC(=O)Cc5ccc(N(CCCl)CCCl)cc5)cc4CC[C@H]3[C@@H]1CC[C@@H]2OC(=O)Cc1ccc(N(CCCl)CCCl)cc1`, the T/C (dose: 300.0 mg/kg/injection, schedule: Q04DX003 (sc), vehicle: saline with Tween-80) is 98 % of control; the T/C (dose: 600.0 mg/kg/injection, schedule: Q04DX003 (sc), vehicle: saline with Tween-80) is 24 % of control; the T/C (dose: 1200.0 mg/kg/injection, schedule: Q04DX003 (sc), vehicle: saline with Tween-80) was 7 % of control.

Turning to `NCc1cc(O)c(O)c(O)c1`, the T/C (dose: 150.0 mg/kg/injection, schedule: Q04DX003 (ip), vehicle: water) is 99 % of control; the T/C (dose: 300.0 mg/kg/injection, schedule: Q04DX003 (ip), vehicle: water) is 120 % of control; the T/C (dose: 600.0 mg/kg/injection, schedule: Q04DX003 (ip), vehicle: water) was 89 % of control; the T/C (dose: 1200.0 mg/kg/injection, schedule: Q04DX003 (ip), vehicle: water) is 91 % of control.

`COc1cc(C(C)c2cc3c(cc2OCCO)OCO3)cc(OC)c1OC` (stereo not drawn): the T/C is, setting by setting: under setting [2], 69 % of control; (dose: 300.0 mg/kg/injection, schedule: Q04DX003 (ip), vehicle: saline) 65 % of control; (dose: 600.0 mg/kg/injection, schedule: Q04DX003 (ip), vehicle: saline) 21 % of control.

Turning to `Cc1cc(O)c2c(c1O)C(=O)C13C(=C2O)C(=O)C2C(O)C1C1C(O)C3C(=O)C3=C(O)c4c(O)cc(C)c(O)c4C(=O)C321` (stereo not drawn), the T/C runs as follows: (dose: 12.5 mg/kg/injection, schedule: Q04DX003 (ip), vehicle: saline with Tween-80) 107 % of control; (dose: 25.0 mg/kg/injection, schedule: Q04DX003 (ip), vehicle: saline with Tween-80) 76 % of control.

As to `Clc1cccc(Cl)c1C(Nc1nncs1)Nc1nncs1`, the T/C reads like this: under setting [3], 94 % of control; under setting [1], 73 % of control; under setting [4], 44 % of control.

Regarding `CCCCCCSc1nc(COC(=O)NC)c(COC(=O)NC)n1C`, the T/C (dose: 33.7 mg/kg/injection, schedule: Q04DX003 (ip), vehicle: saline) is 100 % of control and the T/C (dose: 135.0 mg/kg/injection, schedule: Q04DX003 (ip), vehicle: saline) is 23 % of control.

As to `O=C1N[C@@H]([C@H]2CC[C@H](Cl)CN2)C(=O)N[C@H]1[C@H]1CC[C@H](Cl)CN1`, the T/C runs as follows: (dose: 0.31 mg/kg/injection, schedule: Q01DX010 (sc), vehicle: water) 62 % of control; (dose: 0.63 mg/kg/injection, schedule: Q01DX010 (sc), vehicle: water) 14 % of control; (dose: 1.25 mg/kg/injection, schedule: Q01DX010 (sc), vehicle: water) 1 % of control; (dose: 2.5 mg/kg/injection, schedule: Q01DX010 (sc), vehicle: water) -54 % of control; (dose: 5.0 mg/kg/injection, schedule: Q01DX010 (sc), vehicle: water) -87 % of control.

These data come from PubChem BioAssay AID298 (DTP/NCI, 2004).
